The subject of data set [1] is RAW264.7. Description: Anti-inflammatory activity in LPS-stimulated mouse RAW264.7 cells assessed as inhibition of NO production measured after 48 hrs by Griess assay. The class given is functional, cell-based. To be noted: RAW264.7, 48 h. Background: Griess reagent forms a coloured azo dye with nitrite.
Data set [2] relates to RAW264.7. Nature of the data set: Cytotoxicity against mouse RAW264.7 cells upto 50 uM measured after 48 hrs by MTT assay. The class given is toxicity, cell-based. To be noted: raw264.7, 48 h. (In general: Tetrazolium dyes change colour on reduction, which living cells bring about.)
Data set [3] has as its system RAW264.7. Nature of the data set: Cytotoxicity against mouse RAW264.7 cells upto 25 uM measured after 48 hrs by MTT assay. The class given is toxicity, cell-based. To be noted: raw264.7, 48 h.
For data set [4], the system named is RAW264.7. Description: Cytotoxicity against mouse RAW264.7 cells at 6.25 to 3.125 uM measured after 48 hrs by MTT assay. The class given is toxicity, cell-based. Conditions: raw264.7, 48 h, dose 6.25-3.125 µM.

With `Cc1ccc([C@@]2(C(=O)O)CC[C@H](C(=O)O)c3cc([C@@H](C)CCCO)c(C)cc32)cc1[C@@H](C)CCCO`, in data set [1], the half-maximal inhibitory concentration (IC50) (in general, the concentration at which inhibition is half-maximal) was above 50 µM. Further, the Activity result in data set [2] is listed as “Non-Toxic”.
On to `CC(=O)O[C@H]1[C@@H]2C(C)=C3C[C@H]4[C@H](C[C@H](C)[C@@]31C[C@@]21C(=O)O[C@@H]2C[C@@](C)(O)C([C@@H](C)CCCO)=C[C@@H]21)OC(=O)[C@H]4C`, for which the IC50 in data set [1] was above 50 µM. Further, in data set [2], the Activity entry is “Non-Toxic”.
Consider `CC(=O)O[C@H]1[C@@H]2C(C)=C3C[C@H]4[C@H](C[C@H](C)[C@@]31C[C@]2(C(=O)O)c1ccc(C)c([C@@H](C)CCCO)c1)OC(=O)[C@H]4C`, for which, in data set [1], the IC50 was above 50 µM. Further, in data set [2], the Activity result is listed as “Non-Toxic”.
Regarding `C=C1C(=O)O[C@H]2C[C@H](C)[C@@]34C[C@@]5(C(=O)O[C@@H]6C[C@](C)(O)C([C@@H](C)CCCOC(C)=O)=C[C@@H]65)[C@@H](C(C)=C3C[C@H]12)[C@@H]4OC(C)=O`, the Activity entry in data set [3] is “Non-Toxic”. Also, the IC50 in data set [1] was 4.07 µM.
The corresponding values for `CC(=O)OCCC[C@H](C)C1=C(C)C[C@H]2OC(=O)[C@@]3(C[C@]45C(=C(C)[C@H]3[C@@H]4OC(C)=O)C[C@H]3[C@H](C[C@@H]5C)OC(=O)[C@H]3C)[C@H]2[C@@H]1O` are “Non-Toxic” and 5.73 µM.
With `C[C@]12CCC(=O)C=C1CC[C@@H]1[C@@H]2[C@@H](O)C[C@@]2(C)[C@H]1CC[C@]2(O)C(=O)COC(=O)CCC(=O)O` [HYDROCORTISONE SODIUM SUCCINATE], the IC50 in data set [1] turned out to be 44 µM.
Turning to `CC(=O)OCCC[C@H](C)c1cc([C@@]2(C(=O)O)CC[C@H](C(=O)O)c3cc([C@@H](C)CCCO)c(C)cc32)ccc1C`, in data set [1], the IC50 was above 50 µM. For the same molecule, in data set [2], the Activity entry was “Non-Toxic”.
For `C=C1C(=O)O[C@H]2C[C@H](C)[C@@]34C[C@@]5(C(=O)O[C@@H]6C[C@@](C)(O)C([C@@H](C)CCCO)=C[C@@H]65)[C@@H](C(C)=C3C[C@H]12)[C@@H]4OC(C)=O` the same measures were 10 µM and “Non-Toxic”.
Consider `C=C1C(=O)O[C@H]2C[C@H](C)[C@@]34C[C@](C(=O)O)(c5ccc(C)c([C@@H](C)CCCO)c5)[C@@H](C(C)=C3C[C@H]12)[C@@H]4OC(C)=O`, for which the IC50 in data set [1] was found to be 7.82 µM. Besides, the Activity result in data set [2] is “Non-Toxic”.
The corresponding values for `CC(=O)OCCC[C@H](C)c1cc([C@@]2(C(=O)O)CC[C@H](C(=O)O)c3cc([C@@H](C)CCCOC(C)=O)c(C)cc32)ccc1C` are above 50 µM and “Non-Toxic”.
On to `C=C1C[C@H]2OC(=O)[C@@]3(C[C@]45C(=C(C)[C@H]3[C@@H]4OC(C)=O)C[C@@H]3C(=C)C(=O)O[C@H]3C[C@@H]5C)[C@H]2C=C1[C@@H](C)CCCOC(C)=O`, for which the IC50 in data set [1] is above 50 µM. Moreover, the Activity entry in data set [4] is “Non-Toxic”.

The record behind these values is ChEMBL document CHEMBL5576102, “Characterization of Sesquiterpene Dimers from the Flowers of Inula japonica and the Structural Revisions of Related Compounds” (J Nat Prod, 2024).
